In PubChem BioAssay AID308 (DTP/NCI, 2004) one finds T/C data, which are given here for 17 molecules.

“And” between values parts separate entries of the source, which are not always exact repeats. Equal values may be shown once. Toxic doses and inconclusive results are not listed.

This assay relates to BDF1 mice, L1210 6-MP/6-TG resistant leukemia ip, survival T/C. Put plainly: NCI In Vivo Anticancer Drug Screen. Data for tumor model L1210 Leukemia resistant to 6-MP and 6-Thioguanine; NSC 755, NSC 752 (intraperitoneal) in B6D2F1 (BDF1) mice. To be noted: endpoint: mean survival time, higher = longer survival. How it is done: The antitumor activity of compounds was measured in mice bearing transplantable tumors. Survival or tumor size were measured and the results are expressed as the measurement made in the treated group (T) divided by the measurement made in the vehicle treated control group (C). The tumor model used in this assay is L1210 Leukemia resistant to 6-MP and 6-Thioguanine; NSC 755, NSC 752 (intraperitoneal) in B6D2F1 (BDF1) mice

Where [1] appears, read: dose: 12.5 mg/kg/injection, schedule: Q01DX015 (ip), vehicle: carboxymethylcellulose (CMC).
The mark [2] stands for this setting: dose: 62.5 mg/kg/injection, schedule: Q01DX Z (ip), vehicle: saline.
Where [3] appears, read: dose: 125.0 mg/kg/injection, schedule: Q01DX Z (ip), vehicle: saline.
[4] abbreviates: dose: 37.5 mg/kg/injection, schedule: Q01DX Z (ip), vehicle: carboxymethylcellulose (CMC).
Where [5] appears, read: dose: 75.0 mg/kg/injection, schedule: Q01DX Z (ip), vehicle: carboxymethylcellulose (CMC).
Setting [6] is: dose: 50.0 mg/kg/injection, schedule: Q01DX009 (ip), vehicle: other.

Take `CCSc1ncc(Br)c(Sc2nc(N)nc3nc[nH]c23)n1`: the T/C was 112 % of control (dose: 1.5 mg/kg/injection, schedule: Q01DX015 (ip), vehicle: carboxymethylcellulose (CMC)); 115 % of control (dose: 3.0 mg/kg/injection, schedule: Q01DX015 (ip), vehicle: carboxymethylcellulose (CMC)); 100 % of control (dose: 6.0 mg/kg/injection, schedule: Q01DX015 (ip), vehicle: carboxymethylcellulose (CMC)); 100 % of control under setting [1].

As for `CCOC(=O)NP(=O)(N1CC1(C)C)N1CC1(C)C` (stereo not drawn), the T/C is, setting by setting: (dose: 31.0 mg/kg/injection, schedule: Q01DX Z (ip), vehicle: saline) 113 % of control; (dose: 62.0 mg/kg/injection, schedule: Q01DX Z (ip), vehicle: saline) 160 % of control; under setting [2], 228 % of control; (dose: 93.0 mg/kg/injection, schedule: Q01DX Z (ip), vehicle: saline) 182 % of control; under setting [3], 160 % of control and 207 % of control; (dose: 187.0 mg/kg/injection, schedule: Q01DX Z (ip), vehicle: saline) 207 % of control.

As to `CC(=O)O[C@]1(C(C)=O)CC[C@H]2[C@@H]3C[C@H](C)C4=CC(=O)C=C[C@]4(C)[C@@]3(F)[C@@H](O)C[C@@]21C`, the T/C (dose: 37.5 mg/kg/injection, schedule: Q01DX Z (sc), vehicle: steriod suspending solution) was 101 % of control and the T/C (dose: 100.0 mg/kg/injection, schedule: Q01DX Z (sc), vehicle: steriod suspending solution) was 89 % of control.

`CC(=O)N(C)C`: the T/C is 115 % of control (dose: 7.5 mg/kg/injection, schedule: Q01DX Z (ip), vehicle: saline); 110 % of control (dose: 15.0 mg/kg/injection, schedule: Q01DX Z (ip), vehicle: saline); 107 % of control (dose: 30.0 mg/kg/injection, schedule: Q01DX Z (ip), vehicle: saline); 110 % of control under setting [2]; 114 % of control under setting [3]; 109 % of control (dose: 250.0 mg/kg/injection, schedule: Q01DX Z (ip), vehicle: saline). For the setting “dose: 500.0 mg/kg/injection, schedule: Q01DX Z (ip), vehicle: saline”, the T/C is 120 % of control.

Consider `CC(C)Cn1cnc2c(=S)nc(N)[nH]c21`, for which the T/C by setting is: (dose: 9.0 mg/kg/injection, schedule: Q01DX015 (ip), vehicle: other) 107 % of control; (dose: 14.0 mg/kg/injection, schedule: Q01DX015 (ip), vehicle: other) 106 % of control; (dose: 21.0 mg/kg/injection, schedule: Q01DX015 (ip), vehicle: other) 102 % of control; (dose: 36.0 mg/kg/injection, schedule: Q01DX015 (ip), vehicle: other) 95 % of control.

On to `C[C@H]1C(=O)O[C@@H]2CCN3CC=C(COC(=O)[C@](C)(O)[C@@]1(C)O)[C@H]23`, for which the T/C by setting is: under setting [4], 91 % of control; under setting [5], 110 % of control; (dose: 150.0 mg/kg/injection, schedule: Q01DX Z (ip), vehicle: carboxymethylcellulose (CMC)) 107 % of control; (dose: 300.0 mg/kg/injection, schedule: Q01DX Z (ip), vehicle: carboxymethylcellulose (CMC)) 104 % of control.

In the case of `CNS(=O)(=O)c1ncnc2nc[nH]c12`, the T/C is, setting by setting: (dose: 13.0 mg/kg/injection, schedule: Q01DX Z (ip), vehicle: carboxymethylcellulose (CMC)) 114 % of control; (dose: 32.0 mg/kg/injection, schedule: Q01DX Z (ip), vehicle: carboxymethylcellulose (CMC)) 114 % of control; (dose: 47.0 mg/kg/injection, schedule: Q01DX Z (ip), vehicle: carboxymethylcellulose (CMC)) 123 % of control; (dose: 58.0 mg/kg/injection, schedule: Q01DX Z (ip), vehicle: carboxymethylcellulose (CMC)) 108 % of control; (dose: 70.6 mg/kg/injection, schedule: Q01DX Z (ip), vehicle: carboxymethylcellulose (CMC)) 117 % of control; (dose: 107.0 mg/kg/injection, schedule: Q01DX Z (ip), vehicle: carboxymethylcellulose (CMC)) 113 % of control. Further, for the setting “dose: 160.5 mg/kg/injection, schedule: Q01DX Z (ip), vehicle: carboxymethylcellulose (CMC)”, the T/C was 105 % of control.

In the case of `S=c1nc[nH]c2c1ncn2CN1CCCCC1`, the T/C under setting [6] is 94 % of control.

Regarding `CSc1ncnc2c1ncn2C1CC(O)C(CO)O1` (stereo not drawn), the T/C was 105 % of control (dose: 32.0 mg/kg/injection, schedule: Q## X032 (ip), vehicle: saline); 96 % of control (dose: 48.0 mg/kg/injection, schedule: Q## X032 (ip), vehicle: saline); 107 % of control (dose: 72.0 mg/kg/injection, schedule: Q## X032 (ip), vehicle: saline).

With `Nc1nc(F)nc2c1ncn2C1OC(CO)C(O)C1O` (stereo not drawn), the T/C reads like this: (dose: 0.06 mg/kg/injection, schedule: Q01DX Z (ip), vehicle: saline) 109 % of control; (dose: 0.12 mg/kg/injection, schedule: Q01DX Z (ip), vehicle: saline) 104 % of control; (dose: 0.25 mg/kg/injection, schedule: Q01DX Z (ip), vehicle: saline) 106 % of control; (dose: 0.5 mg/kg/injection, schedule: Q01DX Z (ip), vehicle: saline) 101 % of control; (dose: 0.75 mg/kg/injection, schedule: Q01DX Z (ip), vehicle: saline) 119 % of control; (dose: 1.5 mg/kg/injection, schedule: Q01DX Z (ip), vehicle: saline) 107 % of control. Besides, the T/C by setting is: (dose: 3.0 mg/kg/injection, schedule: Q01DX Z (ip), vehicle: saline) 115 % of control; (dose: 6.0 mg/kg/injection, schedule: Q01DX Z (ip), vehicle: saline) 90 % of control.

On to `Clc1ccc(C(c2ccccc2Cl)C(Cl)Cl)cc1` (stereo not drawn), for which the T/C reads like this: (dose: 23.0 mg/kg/injection, schedule: Q01DX Z (sc), vehicle: steriod suspending solution) 94 % of control; (dose: 46.0 mg/kg/injection, schedule: Q01DX Z (sc), vehicle: steriod suspending solution) 97 % of control; (dose: 93.0 mg/kg/injection, schedule: Q01DX Z (sc), vehicle: steriod suspending solution) 103 % of control; (dose: 187.0 mg/kg/injection, schedule: Q01DX Z (sc), vehicle: steriod suspending solution) 101 % of control; (dose: 375.0 mg/kg/injection, schedule: Q01DX Z (sc), vehicle: steriod suspending solution) 104 % of control; (dose: 500.0 mg/kg/injection, schedule: Q01DX Z (sc), vehicle: steriod suspending solution) 100 % of control. In addition, the T/C is, setting by setting: (dose: 750.0 mg/kg/injection, schedule: Q01DX Z (sc), vehicle: steriod suspending solution) 96 % of control; (dose: 1000.0 mg/kg/injection, schedule: Q01DX Z (sc), vehicle: steriod suspending solution) 98 % of control.

`CCCn1cnc2c(=S)nc[nH]c21`: the T/C is, setting by setting: under setting [1], 97 % of control; (dose: 25.0 mg/kg/injection, schedule: Q01DX015 (ip), vehicle: carboxymethylcellulose (CMC)) 95 % of control; (dose: 50.0 mg/kg/injection, schedule: Q01DX015 (ip), vehicle: carboxymethylcellulose (CMC)) 101 % of control; (dose: 100.0 mg/kg/injection, schedule: Q01DX015 (ip), vehicle: carboxymethylcellulose (CMC)) 96 % of control.

On to `Nc1nc(SCc2ccccc2)c2[nH]cnc2n1`, for which the T/C was 88 % of control (dose: 5.0 mg/kg/injection, schedule: Q01DX Z (ip), vehicle: carboxymethylcellulose (CMC)); 91 % of control (dose: 10.0 mg/kg/injection, schedule: Q01DX Z (ip), vehicle: carboxymethylcellulose (CMC)); 86 % of control (dose: 25.0 mg/kg/injection, schedule: Q01DX Z (ip), vehicle: carboxymethylcellulose (CMC)); 95 % of control under setting [4].

Regarding `OCn1cnc2c(SC3CCCC3)ncnc21`, the T/C by setting is: (dose: 12.5 mg/kg/injection, schedule: Q01DX009 (ip), vehicle: other) 91 % of control; under setting [6], 89 % of control and 93 % of control.

For the molecule `Cn1c(N)nc2nc[nH]c2c1=S`, the T/C reads like this: (dose: 18.75 mg/kg/injection, schedule: Q01DX Z (ip), vehicle: carboxymethylcellulose (CMC)) 98 % of control; under setting [4], 109 % of control; under setting [5], 109 % of control.

Turning to `O=P1(N(CCCl)CCCl)NCCCO1` (stereo not drawn), the T/C reads like this: (dose: 37.5 mg/kg/injection, schedule: Q01DX Z (ip), vehicle: saline) 153 % of control; (dose: 75.0 mg/kg/injection, schedule: Q01DX Z (ip), vehicle: saline) 94 % of control; (dose: 100.0 mg/kg/injection, schedule: Q01DX Z (ip), vehicle: saline) 101 % of control.

Turning to `CCCSc1ncnc2nc[nH]c12`, the T/C runs as follows: (dose: 43.5 mg/kg/injection, schedule: Q01DX Z (ip), vehicle: other) 98 % of control; (dose: 87.0 mg/kg/injection, schedule: Q01DX Z (ip), vehicle: other) 105 % of control; (dose: 175.0 mg/kg/injection, schedule: Q01DX Z (ip), vehicle: other) 91 % of control.
